In patent US20060240021A1, “Mammalian genes involved in rapamycin resistance and tumorgenesis: rapr7 genes” (priority 2002, published 2006):

System: N2a cells
Assay: MTT proliferation assay, rapamycin mediated cell growth inhibition of N2a cells
Type: cell-based, mouse
Conditions: FIG. 7
Excerpt: FIG. 7 illustrates sensitivity of the N2a cell line to the growth inhibitory effect of rapamycin.
In a preferred embodiment, an MTT proliferation assay (see, e.g., van de Loosdrechet, et al., 1994, J. Immunol. Methods 174: 311-320; Ohno et al., 1991, J. Immunol. Methods 145:199-203; Ferrari et al., 1990, J. Immunol. Methods 131: 165-172; Alley et al., 1988, Cancer Res. 48: 589-601; Carmichael et al., 1987, Cancer Res. 47:936-942; Gerlier et al., 1986, J. Immunol. Methods 65:55-63; Mosmann, 1983, J. Immunological Methods 65:55-63) is used to screen for a candidate agent in conjunction with rapamycin to inhibit the growth of rapamycin resistant cells. The cells are treated with chosen concentrations of the candidate agent and rapamycin for 4 to 72 hours. The cells are then incubated with a suitable amount of 3-(4,5-dimethylthiazol-2-yl)-2,5-diphenyltetrazolium bromide (MTT) for 1-8 hours such that viable cells convert MTT into an intracellular deposit of insoluble formazan. After removing the excess MTT contained in the supernatant, a suitable MTT solvent, e.g., a DMSO solution, is added to dissolved the formazan. The concentration of […], which is proportional to the number of viable cells, is then measured by determining the optical density at […]. […]

CO[C@H]1C[C@@H]2CC[C@@H](C)[C@@](O)(O2)C(=O)C(=O)N2CCCC[C@H]2C(=O)O[C@H]([C@H](C)C[C@@H]2CC[C@@H](O)[C@H](OC)C2)CC(=O)[C@H](C)/C=C(\C)[C@@H](O)[C@@H](OC)C(=O)[C@H](C)C[C@H](C)/C=C/C=C/C=C/1C [rapamycin, 9,10,12,13,14,21,22,23,24,25,26,27,32,33,34,34a-hexadecahydro-9,27-dihydroxy-3-[2-(4-hydroxy-3-methoxycyclohexyl)-1-methylethyl]-10,21-dimethoxy-6,8,12,14,20,26-hexamethyl-23,27-epoxy-3H-pyrido[2,1-c][1,4]oxaazacyclohentricontine-1,5,11,28,29(4H,6H,31H)-pentone]
rapamycin concentration at which the growth of N2a cells is completely inhibited (N2a cell line): ≥ 1 µM
rapamycin concentration at which N2a cells are sensitive to cell growth inhibition (mouse neuroblastoma N2a cells, MTT assay): 10 nM
